Converted amounts (≈) assume the structure as drawn.
Legend:
VRE 6A = assay: MIC, agar incorporation method; assay type: cell-based, Enterococcus faecium; details: VRE 6A; agar incorporation
Summary of the method: (§1)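 Doubling dilutions of compounds in DMSO incorporated into Mueller Hinton agar; 10^4 CFU/spot inoculated from 0.5 McFarland suspensions and incubated 18 h. MIC (μg/ml) taken as lowest concentration with no growth, accepted only when standard antibiotics fell within range on ATCC control strains.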

E. faecalis 29212 = assay: MIC, agar incorporation method; assay type: cell-based, Enterococcus faecalis; details: E. faecalis 29212; agar incorporation
Summary of the method: as §1

MRSA 562 [1] = assay: In vivo activity against MRSA 562 (ED50); set-up: species or system Staphylococcus aureus
S. pneum 6303 = assay: MIC, agar incorporation method; assay type: cell-based, Streptococcus pneumoniae; details: S. pneum 6303; agar incorporation
Summary of the method: as §1

E. faecalis = assay: Summary of in vitro activity (MIC) against E. faecalis; assay type: cell-based, Enterococcus faecalis; details: E. faecalis; for MIC50 / MIC90: Number 7
Method: (§2) The compounds of the invention display antibacterial activity when tested by the agar incorporation method. The following minimum inhibitory concentrations (μg/ml) were obtained for representative compounds of the invention which are given below in the following tables.
(§3) Briefly, the compounds were dissolved in DMSO and doubling dilution of the compounds were incorporated into Meuller Hilton agar before solidification. Inoculum was prepared by suspending 4 to 5 colonies into 5 ml of normal saline solution and adjusting the turbidity to 0.5 Macfarland turbidity standard tables (1.5×10^8 CFU/ml), after appropriate dilutions, 10^4 CFU/spot was transfered into the surface of dried plate and incubated for 18 hours (24 hours for MRSN studies). The concentration showing no growth of the inoculated culture was recorded as the MIC. Appropriate ATCC standard strains were simultaneously tested and result recorded only when the MIC's against standard antibiotics were within the acceptable range.

MRSA 562 [2] = assay: MIC, agar incorporation method; assay type: cell-based, Staphylococcus aureus; details: MRSA 562
Summary of the method: (§4)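 Twofold dilutions of DMSO-dissolved compound in Mueller Hinton agar; spots of 10^4 CFU; 18 h growth. Endpoint: no-growth concentration.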

MRSA 33 = assay: MIC, agar incorporation method; assay type: cell-based, Staphylococcus aureus; details: MRSA 33; agar incorporation
Summary of the method: as §4

[3] = Changes in MIC under different conditions: Broth MIC; assay type: cell-based; details: strain not given
S. pneumoniae = assay: Summary of in vitro activity (MIC) against S. pneumoniae; assay type: cell-based, Streptococcus pneumoniae; details: S. pneumoniae; for MIC50 / MIC90: Number 19
Method: as §2, §3

G+ve = assay: Summary of in vitro activity (MIC) against G+ve bacteria; assay type: cell-based; details: for MIC50 / MIC90: G+ve, Number 49
Method: as §2, §3

S. pyogenes 19615 = assay: MIC, agar incorporation method; assay type: cell-based, Streptococcus pyogenes; details: S. pyogenes 19615; agar incorporation
Summary of the method: as §1

[4] = Changes in MIC under different conditions: Agar MIC; assay type: cell-based; details: strain not given
Method: as §2, §3

S. pneum AB 34 = assay: MIC, agar incorporation method; assay type: cell-based, Streptococcus pneumoniae; details: S. pneum AB 34; agar incorporation
Summary of the method: as §4

S. aureus 25923 = assay: MIC, agar incorporation method; assay type: cell-based, Staphylococcus aureus; details: S. aureus 25923; agar incorporation
Summary of the method: as §1

MRSA 15187 = assay: MIC, agar incorporation method; assay type: cell-based, Staphylococcus aureus; details: MRSA 15187; agar incorporation
Summary of the method: as §1

S. aureus = assay: Summary of in vitro activity (MIC) against S. aureus; assay type: cell-based, Staphylococcus aureus; details: S. aureus; for MIC50 / MIC90: Number 8
Method: as §2, §3

| SMILES | MIC (VRE 6A) [µg/mL] | MIC (E. faecalis 29212) [µg/mL] | ED50 (mg/kg body weight) PO (MRSA 562 [1]) [mg/kg body weight] | MIC (S. pneum 6303) [µg/mL] | MIC50 (E. faecalis) [µg/mL] | MIC90 (E. faecalis) [µg/mL] | MIC (MRSA 562 [2]; Table 5) [µg/mL] | MIC (MRSA 562 [2]; agar incorporation, Table 1) [µg/mL] | MIC (MRSA 33) [µg/mL] | Broth MIC +50% Sheep serum [3] [µg/mL] | Broth MIC Normal MH broth [3] [µg/mL] | MIC50 (S. pneumoniae) [µg/mL] | MIC90 (S. pneumoniae) [µg/mL] | MIC50 (G+ve) [µg/mL] | MIC90 (G+ve) [µg/mL] | MIC (S. pyogenes 19615) [µg/mL] | Agar MIC [4] [µg/mL] | MIC (S. pneum AB 34) [µg/mL] | MIC (S. aureus 25923) [µg/mL] | MIC (MRSA 15187) [µg/mL] | further results |
| --- | --- | --- | --- | --- | --- | --- | --- | --- | --- | --- | --- | --- | --- | --- | --- | --- | --- | --- | --- | --- | --- |
| CC(=O)NC[C@H]1CN(c2ccc(N3CCN(C(=O)c4ccc([N+](=O)[O-])s4)CC3)c(F)c2)C(=O)O1.Cl [Compound No. 29, (S)-N[[3-[3-Fluoro-4-[N-1[4-(5-nitro-2-thienoyl)]piperazinyl]-phenyl]2-oxo-5-oxazolidinyl]methyl]acetamide hydrochloride] | 0.5 | 1 | >25 | 1 | 1 | 1 | <0.1 | <0.1 | <0.1 | 0.5 | 0.25 | 1 | 1 | 1 | 1 | 1 | <0.1 | 1 | 0.25 | <0.1 | MIC50 (S. aureus): 0.064 µg/mL; MIC90 (S. aureus): 0.25 µg/mL |
| CC(=O)NC[C@H]1CN(c2ccc(N3CCN(C(=O)c4ccoc4)CC3)c(F)c2)C(=O)O1 [Compound No. 08, (S)-N[[3-[3-Fluoro-4-[N-1[4-(3-furoyl)]piperazinyl]phenyl]2-oxo-5-oxazolidinyl]methyl]cetamide] | 1 (≈ 2.32 µM) | 1 (≈ 2.32 µM) | 25 | 2 (≈ 4.65 µM) | – | – | 1 (≈ 2.32 µM) | 1 (≈ 2.32 µM) | 1 (≈ 2.32 µM) | 4 | 2 | – | – | – | – | 1 (≈ 2.32 µM) | 1 | 4 (≈ 9.29 µM) | 2 (≈ 4.65 µM) | 1 (≈ 2.32 µM) | – |
| CC(=O)NC[C@H]1CN(c2ccc(N3CCC(N(C)C(=O)c4ccc([N+](=O)[O-])o4)CC3)c(F)c2)C(=O)O1 [Compound No. 44] | <0.1 | 0.25 (≈ 0.497 µM) | >25 | 2 (≈ 3.97 µM) | 0.064 (≈ 0.127 µM) | 0.25 (≈ 0.497 µM) | <0.1 | <0.1 | <0.1 | 0.25 | <0.1 | 1 (≈ 1.99 µM) | 2 (≈ 3.97 µM) | 0.5 (≈ 0.993 µM) | 2 (≈ 3.97 µM) | 0.5 (≈ 0.993 µM) | <0.1 | 2 (≈ 3.97 µM) | 0.25 (≈ 0.497 µM) | <0.1 | Geometric Mean of in vitro activity (MIC) (E. faecalis): 0.11 µg/mL; Geometric Mean of in vitro activity (MIC) (S. pneumoniae): 0.96 µg/mL; Geometric Mean of in vitro activity (MIC) (G+ve; Gram +ve): 0.31 µg/mL; Geometric Mean of in vitro activity (MIC) (S. aureus): 0.11 µg/mL; MIC50 (S. aureus): 0.064 µg/mL (≈ 0.127 µM); MIC90 (S. aureus): 0.25 µg/mL (≈ 0.497 µM) |
